Key:
[1] = system: inflammation following cataract surgery; experiment: Clinical dose ranging study after cataract surgery: resolution of anterior chamber (AC) cells and flare; format: in vivo, human
Source text: (§1) There were 8 treatment groups in this study, consisting of three drug doses, vehicle and three dosing frequencies (see also Table 4-1): • Group A: 1% BOL-303242-X ophthalmic suspension, two times per day (BID) • Group B: 2% BOL-303242-X ophthalmic suspension, one time per day (QD) • Group C: 2% BOL-303242-X ophthalmic suspension, BID • Group D: 2% BOL-303242-X ophthalmic suspension, four times per day (QID) • Group E: 3% BOL-303242-X ophthalmic suspension, QD • Group F: 3% BOL-303242-X ophthalmic suspension, BID • Group G: 3% BOL-303242-X ophthalmic suspension, QID • Group H: Vehicle for BOL-303242-X (divided equally into QID, BID, and QD)
At Visit 3 (postoperative Day 1, 18 to 34 hours following surgery), subjects meeting all eligibility criteria were randomized to one of the treatment groups continuing to be studied, including vehicle, in a 1:1 ratio.
(§2) Subjects self-administered study drug, instilling 1 to 2 drops of study drug into the study eye: QID at approximately 4 hour intervals, BID at approximately 12 hour intervals, or QD once in the morning, for 14 days. The initial dose occurred in the clinic at Visit 3 and the final dose was on the day before Visit 6 (postoperative Day 15±1 day). Subjects were examined and evaluated according to the following schedule:
(§3) Visit 1 (screening), Visit 2 (cataract surgery), Visit 3 (postoperative Day 1), Visit 4 (postoperative Day 3±1 day), Visit 5 (postoperative Day 8±1 day), Visit 6 (postoperative Day 15±1 day), Visit 7 (postoperative Day 18±1 day). Subject assessments included adverse events (AEs), concomitant medications, ocular symptoms, pinholed Snellen visual acuity (VA), intraocular pressure (IOP), ocular signs (biomicroscopy), fundoscopy, and study drug drop sensation. In addition, subject diaries were collected and reviewed for accuracy and treatment compliance.
Among other criteria for inclusion in this study, subjects were those who: • were to be at least 18 years of age on the date the informed consent form (“ICF”) was signed and with the capacity to voluntarily provide consent; • were candidates for routine, uncomplicated cataract surgery (phacoemulsification with posterior chamber intraocular lens (“IOL”) implantation, not combined with any other surgery) in the study eye; • in the Investigator's opinion, had potential postoperative pinholed Snellen visual acuity (“VA”) of at least 20/200 or pinholed Decimal VA of 0.1 in the study eye; • had undergone routine, uncomplicated cataract surgery (phacoemulsification with posterior chamber IOL implantation, not combined with any other surgery) in the study eye; and • had ≧Grade 2 anterior chamber (“AC”) cells in the study eye.
Primary Efficacy: The primary efficacy endpoint for this study was the proportion of subjects with complete resolution of AC cells at Visit 5 (postoperative Day 8). Complete resolution of AC cells is defined as Grade 0 cells.
Secondary Efficacy: The secondary efficacy endpoints for this study were the proportions of subjects with Grade 0 pain at Visit 5 (postoperative Day 8) and at each visit, complete resolution of AC cells at each visit, complete resolution of AC cells and flare at each visit, complete resolution of AC flare at each visit, change from baseline to each follow-up visit in AC cells and AC flare combined and separately, ocular symptoms.

[2] = system: IL-1β-induced PGE2 release in human conjunctival fibroblasts (HConF); experiment: IL-1β-induced PGE2 release in human conjunctival fibroblasts (ELISA); format: cell-based; settings: 3-1000 nM, 18 hours
Method: Human conjunctival fibroblasts (HConF) were seeded in 24-well plates in complete Fibroblast Medium (FM) which contained 2% fetal bovine serum (FBS) and Fibroblast Growth Supplement (FGS). After reaching confluence (about 95%), cells were conditioned in basic FM that had been supplemented with 0.5% charcoal-dextran treated fetal bovine serum (CD-FBS) and without Fibroblast Growth Supplement (FGS) for 24 hours. […] Plates were performed in triplicate. Culture media were evaluated for PGE2 release by ELISA.

[3] = system: intraocular pressure (IOP); experiment: Clinical dose ranging study after cataract surgery: intraocular pressure (safety); format: in vivo, human
Source text: as §1, §2
Visit 1 (screening), Visit 2 (cataract surgery), Visit 3 (postoperative Day 1), Visit 4 (postoperative Day 3±1 day), Visit 5 (postoperative Day 8±1 day), Visit 6 (postoperative Day 15±1 day), Visit 7 (postoperative Day 18±1 day). […]

ocular signs = experiment: Clinical dose ranging study after cataract surgery: ocular signs (biomicroscopy); format: in vivo, human
Source text: as §1, §2, §3
Safety: The safety endpoints in this study were: incidence of AEs, change in IOP, ocular signs (biomicroscopy), Snellen VA, fundoscopy, study drug drop sensation assessment.

[4] = 1% BID, Visit 5 (postoperative Day 8)
[5] = 1% BID, Visit 7 (postoperative Day 18)
[6] = 2% QD, Visit 5 (postoperative Day 8)
[7] = 2% QID, Visit 5 (postoperative Day 8)
[8] = 2% QID, Visit 6 (postoperative Day 15)
[9] = 2% QID, Visit 7 (postoperative Day 18)
[10] = 3% BID, Visit 5 (postoperative Day 8)
[11] = 3% BID, Visit 6 (postoperative Day 15)
[12] = 3% BID, Visit 7 (postoperative Day 18)
[13] = 3% QD, Visit 5 (postoperative Day 8)
[14] = 3% QD, Visit 6 (postoperative Day 15)
[15] = 3% QD, Visit 7 (postoperative Day 18)
[16] = 3% QID, Visit 5 (postoperative Day 8)
[17] = 3% QID, Visit 6 (postoperative Day 15)
[18] = 3% QID, Visit 7 (postoperative Day 18)

Question: Which results are given for `Cc1ccc2c(NCC(O)(CC(C)(C)c3cc(F)cc4c3OCC4)C(F)(F)F)cccc2n1` (centres unmarked) [BOL-303242-X]?
Answer: Proportion of subjects with complete resolution of AC flare ([1]; 1% BID (printed 196 BID), Visit 7 (postoperative Day 18)): 56.7%; Proportion of subjects with complete resolution of AC cells [1, 4]: 21.7%; Proportion of subjects with complete resolution of AC cells and flare combined [1, 4]: 20.0%; Proportion of subjects with complete resolution of AC flare [1, 4]: 41.7%; Proportion of subjects with complete resolution of AC flare ([1]; 1% BID, Visit 6 (postoperative Day 15)): 66.7%; Proportion of subjects with complete resolution of AC cells [1, 5]: 41.7%; Proportion of subjects with complete resolution of AC cells and flare combined [1, 5]: 41.7%; Proportion of subjects with complete resolution of AC flare ([1]; 2% BID, Visit 5 (postoperative Day 8)): 50.0%; Proportion of subjects with complete resolution of AC flare ([1]; 2% BID, Visit 6 (postoperative Day 15)): 60.7%; Proportion of subjects with complete resolution of AC cells [1, 6]: 21.4%; Proportion of subjects with complete resolution of AC cells and flare combined [1, 6]: 21.4%; Proportion of subjects with complete resolution of AC flare [1, 6]: 42.9%; Proportion of subjects with complete resolution of AC cells and flare combined ([1]; 2% QD, Visit 6 (postoperative Day 15)): 35.7%; Proportion of subjects with complete resolution of AC flare ([1]; 2% QID (printed 2% ND), Visit 6 (postoperative Day 15)): 66.7%; Proportion of subjects with complete resolution of AC cells [1, 7]: 28.3%; Proportion of subjects with complete resolution of AC cells and flare combined [1, 7]: 26.7%; Proportion of subjects with complete resolution of AC flare [1, 7]: 51.7%; Proportion of subjects with complete resolution of AC cells [1, 8]: 43.3%; Proportion of subjects with complete resolution of AC cells and flare combined [1, 8]: 41.7%; Proportion of subjects with complete resolution of AC cells [1, 9]: 53.396%; Proportion of subjects with complete resolution of AC cells and flare combined [1, 9]: 53.3%; Proportion of subjects with complete resolution of AC flare [1, 9]: 66.7%; Proportion of subjects with complete resolution of AC flare ([1]; 3% BID, Visit 4 (postoperative Day 3)): 38.3%; Proportion of subjects with complete resolution of AC cells [1, 10]: 25.0%; Proportion of subjects with complete resolution of AC cells and flare combined [1, 10]: 23.3%; Proportion of subjects with complete resolution of AC flare [1, 10]: 51.7%; Proportion of subjects with complete resolution of AC cells [1, 11]: 38.3%; Proportion of subjects with complete resolution of AC cells and flare combined [1, 11]: 38.3%; Proportion of subjects with complete resolution of AC flare [1, 11]: 51.7%; Proportion of subjects with complete resolution of AC cells [1, 12]: 43.3%; Proportion of subjects with complete resolution of AC cells and flare combined [1, 12]: 43.3%; Proportion of subjects with complete resolution of AC flare [1, 12]: 56.7%; Proportion of subjects with complete resolution of AC flare ([1]; 3% QD, Visit 4 (postoperative Day 3)): 35.6%; Proportion of subjects with complete resolution of AC cells [1, 13]: 25.4%; Proportion of subjects with complete resolution of AC cells and flare combined [1, 13]: 23.7%; Proportion of subjects with complete resolution of AC flare [1, 13]: 55.9%; Proportion of subjects with complete resolution of AC cells [1, 14]: 47.5%; Proportion of subjects with complete resolution of AC cells and flare combined [1, 14]: 47.5%; Proportion of subjects with complete resolution of AC flare [1, 14]: 66.1%; Proportion of subjects with complete resolution of AC cells [1, 15]: 47.5%; Proportion of subjects with complete resolution of AC cells and flare combined [1, 15]: 47.5%; Proportion of subjects with complete resolution of AC flare [1, 15]: 57.6%; Proportion of subjects with complete resolution of AC cells [1, 16]: 30.0%; Proportion of subjects with complete resolution of AC cells and flare combined [1, 16]: 30.0%; Proportion of subjects with complete resolution of AC flare [1, 16]: 55.0%; Proportion of subjects with complete resolution of AC cells [1, 17]: 38.3%; Proportion of subjects with complete resolution of AC cells and flare combined [1, 17]: 36.7%; Proportion of subjects with complete resolution of AC flare [1, 17]: 61.7%; Proportion of subjects with complete resolution of AC cells [1, 18]: 46.7%; Proportion of subjects with complete resolution of AC cells and flare combined [1, 18]: 45.0%; Proportion of subjects with complete resolution of AC flare [1, 18]: 58.3%; Anterior chamber cells, change from baseline, compared to vehicle ([1]; Visit 4: 1% BID, 2% QID, 3% QD, 3% QID): Statistically significant mean decreases; Anterior chamber cells, change from baseline, compared to vehicle ([1]; Visit 5: 1% BID, 2% QD, 2% QID, 3% QD, 3% BID, 3% QID): Statistically significant mean decreases; Anterior chamber cells, change from baseline, compared to vehicle ([1]; Visit 6: 1% BID, 2% QID, QD, 3% BID, 3% QID): Statistically significant mean decreases; Anterior chamber cells, change from baseline, compared to vehicle ([1]; Visit 7: 1% BID. 2% QD, 2% QID, QD, 3% BID, 3% QID): Statistically significant mean decreases; Production of PGE2 by IL-1β-induced HConF [2]: successfully inhibits; Mean IOP values among groups ([3]; 2% QID and 3% QD groups, Visit 4 (postoperative Day 3) to Visit 7 (postoperative Day 18)): lowest mean IOP values; Proportion of subjects with mean IOP changes from baseline of ≧5 mmHg or ≧10 mmHg, compared to vehicle ([3]; any dose groups at any study visits): no statistically significant differences; Proportions of subjects with increases in scores for AC cells (ocular signs; Visit 4 (2% QD) and Visit 5 (2% QID, 3% QID)): statistically significantly lower proportions; Proportions of subjects with increases in scores for ciliary flush (ocular signs; Visit 4 (2% QD), Visit 5 (1% BID, 2% QID, 3% BID, 3% QID), and Visit 7 (2% QID and 3% QD)): statistically significantly lower proportions; Proportions of subjects with increases in scores for AC flare (ocular signs; Visit 4 (2% QID) and Visit 5 (3% BID)): statistically significantly lower proportions; Proportions of subjects with increases in scores for chemosis (ocular signs; Visit 4 (3% BID)): statistically significantly lower proportions; Proportions of subjects with increases in scores for palpebral conjunctival injection (ocular signs; Visit 5 (1% BI), 3% BID)): statistically significantly lower proportions; Proportions of subjects with increases in scores for bulbar conjunctival injection (ocular signs; Visit 5 (2% QID, 3% BID, 3% QID)): statistically significantly lower proportions; Proportions of subjects with increases in scores for anterior vitreous haze, corneal edema, corneal staining, eyelid erythema, hyphema, and posterior synechiae (ocular signs; any dose groups at any postoperative visits): No statistically significant differences

From patent publication US20120065228A1, “COMPOSITIONS AND METHODS FOR TREATING, CONTROLLING, REDUCING, OR AMELIORATING OCULAR INFLAMMATORY WITH LOWER RISK OF INCREASED INTRAOCULAR PRESSURE” (priority 2007, published 2012)
